How the values were obtained:
human CB2 receptor = biological target: T1, human CB2 receptor (Homo sapiens, UniProt P34972); assay: CB2 receptor affinity ([3H]-CP-55,940 displacement, HEK cell membranes); assay type: binding; conditions: displacement of [3H]-CP-55,940 at 10 μM
T1 construct: expressed in transfected cells; host or cells: human embryonic kidney (HEK) cells, Semliki Forest Virus system, membrane preparation
Protocol: (§1) CB1 and CB2 Receptor Affinity
(§2) The affinity of the compounds of the invention for cannabinoid CB2 receptors was determined using membrane preparations of human embryonic kidney (HEK) cells in which the human CB2 receptor is transiently transfected using a Semliki Forest Virus system in conjunction with [^3H]-CP-55,940 as radioligand. After incubation of freshly prepared cell membrane preparation with the [^3H]-ligand, with or without addition of compounds of the invention, separation of bound and free ligand was performed by filtration over glass fiber filters. Radioactivity on the filter was measured by scintillation counting.
(§3) The ability of the compounds to displace the radioligand [^3H]-CP-55,940 was measured at a concentration of 10 μM and values provided as [% inhibition @ 10 μM] both for the CB1 and CB2 receptor assay, The lower % inhibition is, the lower the likelihood of side effects based on CB1 or CB2 receptor inhibition is.

ABCA1 protein = assay: Detection of upregulation of ABCA1 protein in cells (ApoA-I binding, high content image analysis); assay type: cell-based; conditions: THP-1 macrophage cells; for % increase of ABCA1 at 3 μM: compound at 3 μM, 24 hrs; for EC50: ABCA1 protein increasing efficacy
Protocol: Detection of Upregulation of ABCA1 Protein in Cells
The ability of compounds of the invention to increase the level of ABCA1 protein is determined in replicate cultures of THP-1 macrophage cells in 96-well microplates. Cells are plated at an initial density of 100,000 cells/well in 100 μl medium and differentiated to adherent macrophages with the addition of PMA (100 nM) for 68 hrs in 10% fetal bovine serum, 3 μl/L of b-mercaptoethanol, RPMI-1640 medium. Then, cells are incubated with RPMI-1640 medium containing 1% FCS, 25 μg/ml acetylated LDL, for 24 hours at 37° C. Following incubation with acetylated LDL, cells are washed twice with 50 μl PBS and incubated with 100 μl of RPMI-1640 medium containing the compound of interest solubilized in DMSO for an additional 24 hrs. The final DMSO concentration in presence of cells is maintained at 0.5%. ApoA-I binding assay using High Content Image Analysis is initiated by replacing with fresh medium, RPMI without Phenol Red, 0.2% BSA containing AlexaFluor®647 labeled ApoA-I for 2 h/37° C./5% CO2. Then, cells are fixed with 4% Formaldehyde in PBS (15 min, RT). Following Nuclei are stained with Hoechst solution (3 μM PBS) and Cytoplasm with Cell Mask Blue (2 μg/ml PBS), 15 min, RT. Finally the stained cells are fixed with a second round of formaldehyde treatment. Fixed stained cells are washed and kept in PBS at 4° C. and can be read immediately until one month after preparation.
The Alexa Fluor 647-labeled Apolipoprotein A-I (20 nM) was prepared as follows: Human recombinant Apolipoprotein A-I (ApoA-I) was exchanged to a buffer of 0.02 M NaHCO3 at pH 8.2 on an NAP desalting column (GE Healthcare) and brought to a concentration to 40 μM (1.13 mg/ml) by adjustment with the same buffer. The ApoA-I was fluorescently labeled by incubation with Alexa Fluor carboxylic acid succimidyl ester (Alexa Fluor 647, Invitrogen A-20006) at a 2:1 molar ratio (Alexa to ApoA-I) for 1 h under shaking at RT. The remaining unconjugated label was removed by buffer exchange to 0.02M NaHCO3 at pH 8.2.
Imaging and data collection were performed on an OPERA confocal microplate imaging reader using a 20× water immersion objective and UV360 or 405 laser to identify the cell nuclei and a 635 laser to identify the fluorescent ApoA-I. Eight fields of view are captured per well. Image capture and analysis was performed with the Acapella software. Background fluorescence detected in control wells without ApoA-I was subtracted.
Using XLfit3 program (ID Business Solutions Ltd. UK), the model 205 for Dose Response One Site is used to calculate the EC50 values. […] Particularly, the compounds of the present invention have EC50 values in a range of 0.1 μM to 3 μm.

human CB1 receptor = biological target: T2, human CB1 receptor (Homo sapiens, UniProt P21554); assay: CB1 receptor affinity ([3H]-CP-55,940 displacement, HEK cell membranes); assay type: binding; conditions: displacement of [3H]-CP-55,940 at 10 μM
T2 construct: expressed in transfected cells; host or cells: human embryonic kidney (HEK) cells, Semliki Forest Virus system, membrane preparation
Protocol: as §1
as §2, with “cannabinoid” for “cannabinoid CB2”, “CB1” for “CB2”, “[3H]-CP-55,940” for “[^3H]-CP-55,940”
as §3

T1 sequence (P34972 whole entry): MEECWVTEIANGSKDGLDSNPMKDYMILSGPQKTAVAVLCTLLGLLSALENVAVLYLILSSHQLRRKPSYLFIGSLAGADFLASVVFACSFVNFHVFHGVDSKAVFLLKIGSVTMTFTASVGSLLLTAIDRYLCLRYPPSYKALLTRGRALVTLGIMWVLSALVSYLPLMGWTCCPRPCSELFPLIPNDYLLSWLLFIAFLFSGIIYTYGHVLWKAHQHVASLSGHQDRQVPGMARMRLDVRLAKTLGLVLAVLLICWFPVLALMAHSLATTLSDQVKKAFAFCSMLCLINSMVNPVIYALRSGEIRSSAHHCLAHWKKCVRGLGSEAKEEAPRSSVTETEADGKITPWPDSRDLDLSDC
T2 sequence (P21554 whole entry): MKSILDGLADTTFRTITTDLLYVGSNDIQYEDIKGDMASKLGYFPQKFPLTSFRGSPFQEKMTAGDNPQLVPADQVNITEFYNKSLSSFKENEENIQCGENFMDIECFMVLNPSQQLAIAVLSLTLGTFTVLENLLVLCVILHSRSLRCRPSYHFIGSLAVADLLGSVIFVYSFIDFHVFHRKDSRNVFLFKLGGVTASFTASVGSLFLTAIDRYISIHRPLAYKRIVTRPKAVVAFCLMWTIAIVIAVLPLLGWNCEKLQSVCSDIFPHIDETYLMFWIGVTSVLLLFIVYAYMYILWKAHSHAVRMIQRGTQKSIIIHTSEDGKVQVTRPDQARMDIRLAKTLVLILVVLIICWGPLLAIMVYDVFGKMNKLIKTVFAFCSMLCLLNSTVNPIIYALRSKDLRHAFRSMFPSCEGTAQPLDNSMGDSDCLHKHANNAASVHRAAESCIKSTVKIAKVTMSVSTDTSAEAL

Compound	CB2 receptor affinity [% inhibition @ 10 μM] (human CB2 receptor) [% inhibition]	% increase of ABCA1 at 3 μM (ABCA1 protein) [% @ 3 μM]	CB1 receptor affinity [% inhibition @ 10 μM] (human CB1 receptor) [% inhibition]	EC50 (ABCA1 protein) [nM]
CCN(C(=O)c1cnc(OCC(F)(F)F)c(C2=CCCCC2)c1)C(C)C [Example 2, 5-cyclohex-1-enyl-N-ethyl-N-isopropyl-6-(2,2,2-trifluoro-ethoxy)-nicotinamide]	3	>45	37	–
O=C(Nc1cccnn1)c1cnc(OCC(F)(F)F)c(C2CCCC2)c1 [Example 9, 5-cyclopentyl-N-pyridazin-3-yl-6-(2,2,2-trifluoro-ethoxy)-nicotinamide]	9	–	7	10000
O=C(Nc1cccnc1)c1cnc(OCC(F)(F)F)c(C2CCCC2)c1 [Example 8, 5-cyclopentyl-N-pyridin-3-yl-6-(2,2,2-trifluoro-ethoxy)-nicotinamide]	13	>45	49	–
O=C(NCc1ccn(CC2CC2)n1)c1cnc(OCC(F)(F)F)c(C2CCCC2)c1 [Example 17, 5-cyclopentyl-N-(1-cyclopropylmethyl-1H-pyrazol-3-ylmethyl)-6-(2,2,2-trifluoro-ethoxy)-nicotinamide]	9	>45	25	–
O=C(Nc1cccnc1)c1cnc(OCC(F)(F)F)c(C2=CCCC2)c1 [Example 7, 5-cyclopent-1-enyl-N-pyridin-3-yl-6-(2,2,2-trifluoro-ethoxy)-nicotinamide]	3	>45	11	–
O=C(Nc1ccccn1)c1cnc(OCC(F)(F)F)c(C2CCCC2)c1 [Example 10, 5-cyclopentyl-N-pyridin-2-yl-6-(2,2,2-trifluoro-ethoxy)-nicotinamide]	−9	–	9	1010
O=C(NCc1nc(C(F)(F)F)no1)c1cnc(OCC(F)(F)F)c(C2CCCC2)c1 [Example 11, 5-cyclopentyl-6-(2,2,2-trifluoro-ethoxy)-N-(3-trifluoromethyl-[1,2,4]oxadiazol-5-ylmethyl)-nicotinamide]	−3	>45	29	–
O=C(NCc1nc(C(F)(F)F)no1)c1cnc(OCC(F)(F)F)c(C2=CCOCC2)c1 [Example 5, 5-(3,6-dihydro-2H-pyran-4-yl)-6-(2,2,2-trifluoro-ethoxy)-N-(3-trifluoromethyl-[1,2,4]oxadiazol-5-ylmethyl)-nicotinamide]	−2	–	15	2920
O=C(NCc1nc(C(F)(F)F)no1)c1cnc(OCC(F)(F)F)c(C2=CCCCC2)c1 [Example 3, 5-cyclohex-1-enyl-6-(2,2,2-trifluoro-ethoxy)-N-(3-trifluoromethyl-[1,2,4]oxadiazol-5-ylmethyl)-nicotinamide]	−1	>45	42	–
COc1cc(CNC(=O)c2cnc(OCC(F)(F)F)c(C3CCCC3)c2)on1 [Example 12, 5-cyclopentyl-N-(3-methoxy-isoxazol-5-ylmethyl)-6-(2,2,2-trifluoro-ethoxy)-nicotinamide]	12	>45	29	–
N#Cc1ccc(NC(=O)c2cnc(OCC(F)(F)F)c(C3CCCC3)c2)cc1 [Example 25, N-(4-cyano-phenyl)-5-cyclopentyl-6-(2,2,2-trifluoro-ethoxy)-nicotinamide]	0	>45	27	–
O=C(Nc1ccnnc1)c1cnc(OCC(F)(F)F)c(C2CCCCC2)c1 [Example 20, 5-cyclohexyl-N-pyridazin-4-yl-6-(2,2,2-trifluoro-ethoxy)-nicotinamide]	6	>45	36	–
O=C(NCc1csc(C2CC2)n1)c1cnc(OCC(F)(F)F)c(C2CCCC2)c1 [Example 18, 5-cyclopentyl-N-(2-cyclopropyl-thiazol-4-ylmethyl)-6-(2,2,2-trifluoro-ethoxy)-nicotinamide]	14	>45	17	–
O=C(Nc1ccncn1)c1cnc(OCC(F)(F)F)c(C2CCCCC2)c1 [Example 21, 5-cyclohexyl-N-pyrimidin-4-yl-6-(2,2,2-trifluoro-ethoxy)-nicotinamide]	−4	>45	38	–
N#Cc1ccc(NC(=O)c2cnc(OCC(F)(F)F)c(C3CCCCC3)c2)cc1 [Example 24, N-(4-cyano-phenyl)-5-cyclohexyl-6-(2,2,2-trifluoro-ethoxy)-nicotinamide]	−17	>45	10	–
O=C(NCc1csc(C2CC2)n1)c1cnc(OCC(F)(F)F)c(C2CCCCC2)c1 [Example 16, 5-cyclohexyl-N-(2-cyclopropyl-thiazol-4-ylmethyl)-6-(2,2,2-trifluoro-ethoxy)-nicotinamide]	5	>45	25	–
O=C(NCc1nc(C(F)(F)F)no1)c1cnc(OCC(F)(F)F)c(C2CCCCC2)c1 [Example 4, 5-cyclohexyl-6-(2,2,2-trifluoro-ethoxy)-N-(3-trifluoromethyl-[1,2,4]oxadiazol-5-ylmethyl)-nicotinamide]	2	–	31	150
O=C(Nc1cnccn1)c1cnc(OCC(F)(F)F)c(C2CCCC2)c1 [Example 28, 5-cyclopentyl-N-pyrazin-2-yl-6-(2,2,2-trifluoro-ethoxy)-nicotinamide]	2	>45	12	–
COc1cc(CNC(=O)c2cnc(OCC(F)(F)F)c(C3CCCCC3)c2)on1 [Example 13, 5-cyclohexyl-N-(3-methoxy-isoxazol-5-ylmethyl)-6-(2,2,2-trifluoro-ethoxy)-nicotinamide]	5	>45	45	–
